According to patent publication US20140213446A1, “HERBICIDAL COMPOSITIONS AND METHODS USING COMBINATIONS OF 4-AMINO-3-CHLORO-6-(4-CHLORO-2-FLUORO-3-METHOXYPHENYL)PYRIDINE-2-CARBOXYLIC ACID OR A DERIVATIVE THEREOF AND AN ARYLOXYPHENOXY PROPIONATE ACCASE INHIBITOR HERBICIDE” (DOW AGROSCIENCES LLC, priority 2013, published 2014):

Columns and labels:
Experiment in all cases: Postemergent herbicidal activity, greenhouse
Format in all cases: in vivo
[1] = test system: CHEAL Chenopodium album L. (common lambsquarters)
Description: (§1) Evaluation of Postemergent Herbicidal Activity. Seeds or nutlets of the desired test plant species were planted in Sun Gro Metro-Mix® 360 planting mixture, which typically has a pH of 6.0 to 6.8 and an organic matter content of about 30 percent, in plastic pots with a surface area of 64 square centimeters (cm^2). When required to ensure good germination and healthy plants, a fungicide treatment and/or other chemical or physical treatment was applied. The plants were grown for 7-21 days (d) in a greenhouse with an approximate 15 hour (h) photoperiod which was maintained at about 23-29° C. during the day and 22-28° C. during the night. Nutrients and water were added on a regular basis and supplemental lighting was provided with overhead metal halide 1000-Watt lamps as necessary. The plants were employed for testing when they reached the first or second true leaf stage.
(§2) A weighed amount, determined by the highest rate to be tested, of each test compound was placed in a 25 milliliter (mL) glass vial and was dissolved in 4 mL of a 97:3 volume per volume (v/v) mixture of acetone and dimethyl sulfoxide (DMSO) to obtain concentrated stock solutions. […] The concentrated stock solutions obtained were diluted with 20 mL of an aqueous mixture containing acetone, water, isopropyl alcohol, DMSO, Atplus 411F crop oil concentrate, and Triton® X-155 surfactant in a 48.5:39:10:1.5:1.0:0.02 v/v ratio to obtain spray solutions containing the highest application rates. Additional application rates were obtained by serial dilution of 12 mL of the high rate solution into a solution containing 2 mL of a 97:3 v/v mixture of acetone and DMSO and 10 mL of an aqueous mixture containing acetone, water, isopropyl alcohol, DMSO, Atplus 411F crop oil concentrate, and Triton X-155 surfactant in a 48.5:39:10:1.5:1.0:0.02 v/v ratio to obtain ½X, ¼X, ⅛X and 1/16X rates of the high rate. Compound requirements are based upon a 12 mL application volume at a rate of 187 liters per hectare (L/ha). Formulated compounds were applied to the plant material with an overhead Mandel track sprayer equipped with 8002E nozzles calibrated to deliver 187 L/ha over an application area of 0.503 square meters (m^2) at a spray height of 18 inches ([…]) above the average plant canopy height. Control plants were sprayed in the same manner with the solvent blank.
(§3) Treatments consisted of the methyl ester of 4-amino-3-chloro-6-(4-chloro-2-fluoro-3-methoxyphenyl)pyridine-2-carboxylic acid (Cmpd 1) as technical grade material and fluazifop-P-butyl (Fusilade® DX), haloxyfop-P-methyl (GALLANT® super), and quizalofop-P-ethyl (Assure® II) alone and in combination. The form of compound of formula (I) and fluazifop-P-butyl, haloxyfop-P-methyl, and quizalofop-P-ethyl were applied on an acid equivalent basis.
(§4) The treated plants and control plants were placed in a greenhouse as described above and watered by subirrigation to prevent wash-off of the test compounds. After 14 d, the condition of the test plants as compared with that of the untreated plants was determined visually and scored on a scale of 0 to 100 percent where 0 corresponds to no injury and 100 corresponds to complete kill.
(§5) Results of testing mixtures in accordance with this disclosure and of the components of the mixtures separately against various common weeds in greenhouse trials are reported in the following tables. The reported values are of percent (%) control or percent (%) injury, visually rated. Colby's equation was used to determine the herbicidal effects expected from the mixtures (Colby, S. R. Calculation of the synergistic and antagonistic response of herbicide combinations. Weeds 1967, 15, 20-22.).
(§6) More specifically, the following equation was used to calculate the expected activity of mixtures containing two active ingredients, A and B:
(§7) A=observed efficacy of active ingredient A at the same concentration as used in the mixture; B=observed efficacy of active ingredient B at the same concentration as used in the mixture. […]

[2] = test system: BRSNW Brassica napus (winter oilseed rape)
Description: as §1, §2, §3, §4, §5, §6, §7

[3] = test system: AMARE Amaranthus retroflexus L. (redroot pigweed)
Description: as §1, §2, §3, §4, §5, §6, §7

[4] = test system: STEME Stellaria media (L.) Vill. (common chickweed)
Description: as §1, §2, §3, §4, §5, §6, §7

[5] = test system: CIRAR Cirsium arvense (L.) Scop. (Canada thistle)
Description: as §1, §2, §3, §4, §5, §6, §7

[6] = test system: IPOHE Ipomoea hederacea (L.) Jacq. (ivyleaf momingglory)
Description: as §1, §2, §3, §4, §5, §6, §7

[7] = test system: VIOTR Viola tricolor L. (wild violet)
Description: as §1, §2, §3, §4, §5, §6, §7

Measured: Visual Growth Reduction (%) 14 DAA Obs

CCOC(=O)[C@@H](C)Oc1ccc(Oc2cnc3cc(Cl)ccc3n2)cc1 [Quizalofop-P-ethyl, quizalofop-P-ethyl]
0%: [1]; Quizalofop-P 37.5 g ae/ha | [1]; Quizalofop-P 75 g ae/ha | [1]; Quizalofop-P 150 g ae/ha | [2]; Quizalofop-P 37.5 g ae/ha | [2]; Quizalofop-P 75 g ae/ha | [2]; Quizalofop-P 150 g ae/ha | [3]; Quizalofop-P 37.5 g ae/ha | [3]; Quizalofop-P 75 g ae/ha | [3]; Quizalofop-P 150 g ae/ha | [4]; Quizalofop-P 37.5 g ae/ha | [4]; Quizalofop-P 75 g ae/ha | [4]; Quizalofop-P 150 g ae/ha | [5]; Quizalofop-P 37.5 g ae/ha | [5]; Quizalofop-P 75 g ae/ha | [5]; Quizalofop-P 150 g ae/ha | [6]; Quizalofop-P 37.5 g ae/ha | [6]; Quizalofop-P 75 g ae/ha | [6]; Quizalofop-P 150 g ae/ha | [7]; Quizalofop-P 37.5 g ae/ha | [7]; Quizalofop-P 75 g ae/ha | [7]; Quizalofop-P 150 g ae/ha
